Measured values published in ChEMBL document CHEMBL3045288, “Pharmacophore of neonicotinoid insecticides” (J Pestic Sci, 2008).

Experiments:
Periplaneta americana [1] = assay: Insecticidal activity against Periplaneta americana (American cockroach) central nerve cord; assay type: functional
Aulacophora [2] = assay: Insecticidal activity against Aulacophora femoralis (cucurbit leaf beetle) at 500 ppm; assay type: functional
Spodoptera litura [3] = assay: Insecticidal activity against Spodoptera litura at 500 ppm; assay type: functional
Myzus persicae [4] = assay: Insecticidal activity against Myzus persicae (green peach aphid) at 500 ppm; assay type: functional
Periplaneta americana [5] = assay: Neuroblocking potency in Periplaneta americana (American cockroach) central nerve cord; assay type: functional
Myzus persicae [6] = assay: Insecticidal activity against Myzus persicae (green peach aphid) at 100 ppm; assay type: functional
Aulacophora [7] = assay: Insecticidal activity against Aulacophora femoralis (cucurbit leaf beetle) at 100 ppm; assay type: functional
Spodoptera litura [8] = assay: Insecticidal activity against Spodoptera litura at 100 ppm; assay type: functional
Aulacophora [9] = assay: Insecticidal activity against Aulacophora femoralis (cucurbit leaf beetle) at 20 ppm; assay type: functional
Myzus persicae [10] = assay: Insecticidal activity against Myzus persicae (green peach aphid) at 20 ppm; assay type: functional
[11] = Lipophilicity, log P of the compound; assay type: physicochemical; settings: octanol/water
Spodoptera litura [12] = assay: Insecticidal activity against Spodoptera litura at 20 ppm; assay type: functional

O=[N+]([O-])/N=C1/N(CCCCCCCN2CCN(Cc3ccc(Cl)nc3)/C2=N/[N+](=O)[O-])CCN1Cc1ccc(Cl)nc1 [Heptamethylene 1,7-bis-imadacloprid]
Activity (Periplaneta americana [1]): 2.8 nmol

O=[N+]([O-])/N=C1\NCCN1CCC(F)=C(F)F
Activity (Aulacophora [2]): 0% | Activity (Spodoptera litura [3]): 0% | Activity (Myzus persicae [4]): 0%

O=[N+]([O-])Nc1nccn1Cc1ccc(Cl)nc1 [DEHYDROIMIDACLOPRID]
log(1/BC) (Periplaneta americana [5]): 4.31

CN1CCN(Cc2ccc(Cl)nc2)/C1=N/[N+](=O)[O-]
log(1/BC) (Periplaneta americana [5]): 3.81

O=[N+]([O-])/N=C1\NCCN1CCF
Activity (Aulacophora [2]): 0% | Activity (Spodoptera litura [3]): 0% | Activity (Myzus persicae [4]): 60%

O=[N+]([O-])/N=c1\ccccn1Cc1cnc(Cl)s1
log(1/BC) (Periplaneta americana [5]): 5.75

O=[N+]([O-])/N=c1\[nH]ccn1Cc1cnc(Cl)s1
log(1/BC) (Periplaneta americana [5]): 4.61

O=[N+]([O-])/N=c1\ccccn1Cc1ccc(Cl)nc1
log(1/BC) (Periplaneta americana [5]): 5.09

O=[N+]([O-])/N=C1\N(CCN2CCN(Cc3ccc(Cl)nc3)/C2=N\[N+](=O)[O-])CCN1Cc1ccc(Cl)nc1
Activity (Periplaneta americana [1]): 8.3 nmol

O=[N+]([O-])/N=C1/N(CCCCCCCCCN2CCN(Cc3ccc(Cl)nc3)/C2=N/[N+](=O)[O-])CCN1Cc1ccc(Cl)nc1
Activity (Periplaneta americana [1]): 2.8 nmol

O=[N+]([O-])/C=C1\SCCN1Cc1ccc(Cl)nc1
log(1/BC) (Periplaneta americana [5]): 6.19

CCCN1CCN/C1=N\[N+](=O)[O-]
Activity (Aulacophora [2]): 0% | Activity (Spodoptera litura [3]): 0% | Activity (Myzus persicae [4]): 60%

O=[N+]([O-])/N=C1\NCCN1CCCF
Activity (Aulacophora [2]): 100% | Activity (Myzus persicae [6]): 90% | Activity (Spodoptera litura [3]): 100% | Activity (Aulacophora [7]): 100% | Activity (Spodoptera litura [8]): 20% | Activity (Aulacophora [9]): 0% | Activity (Myzus persicae [4]): 97% | Activity (Myzus persicae [10]): 60%

O=[N+]([O-])/C=C1\CCCN1Cc1ccc(Cl)nc1
log(1/BC) (Periplaneta americana [5]): 6.43

O=[N+]([O-])/N=C1\SCCN1Cc1cnc(Cl)s1
log(1/BC) (Periplaneta americana [5]): 6.31

O=[N+]([O-])/N=C1\NCCCN1Cc1ccc(Cl)nc1
log(1/BC) (Periplaneta americana [5]): 5.35

O=[N+]([O-])/N=C1/N(CCCN2CCN(Cc3ccc(Cl)nc3)/C2=N/[N+](=O)[O-])CCN1Cc1ccc(Cl)nc1
Activity (Periplaneta americana [1]): 4.9 nmol

O=[N+]([O-])/N=C1\N(CCCF)CCN1Cc1ccc(Cl)nc1
Activity (Myzus persicae [6]): 100% | Activity (Spodoptera litura [3]): 0% | Activity (Aulacophora [7]): 100% | Activity (Aulacophora [9]): 100% | Activity (Myzus persicae [10]): 100%

O=[N+]([O-])/N=C1/N(CCCCCCN2CCN(Cc3ccc(Cl)nc3)/C2=N/[N+](=O)[O-])CCN1Cc1ccc(Cl)nc1 [Hexamethylene 1,6-bis-imadacloprid]
Activity (Periplaneta americana [1]): 2.2 nmol

O=[N+]([O-])/N=C1/N(CCCCN2CCN(Cc3ccc(Cl)nc3)/C2=N/[N+](=O)[O-])CCN1Cc1ccc(Cl)nc1
Activity (Periplaneta americana [1]): 11 nmol

O=[N+]([O-])/N=C1\NCCN1CCC(F)(F)F
Activity (Aulacophora [2]): 100% | Activity (Spodoptera litura [3]): 30% | Activity (Aulacophora [7]): 50% | Activity (Myzus persicae [4]): 0%

O=[N+]([O-])/N=C1/N(CCCCCN2CCN(Cc3ccc(Cl)nc3)/C2=N/[N+](=O)[O-])CCN1Cc1ccc(Cl)nc1
Activity (Periplaneta americana [1]): 3.9 nmol

CN1CCN(Cc2ccc(Cl)nc2)/C1=C/[N+](=O)[O-]
log(1/BC) (Periplaneta americana [5]): 3.84

O=[N+]([O-])/N=C1/N(CCCCCCCCN2CCN(Cc3ccc(Cl)nc3)/C2=N/[N+](=O)[O-])CCN1Cc1ccc(Cl)nc1
Activity (Periplaneta americana [1]): 4.5 nmol

O=[N+]([O-])/N=C1\NCCN1CCCCF
Activity (Myzus persicae [6]): 60% | Activity (Spodoptera litura [3]): 20% | Activity (Spodoptera litura [8]): 0% | Activity (Myzus persicae [4]): 97% | Activity (Myzus persicae [10]): 0%

O=[N+]([O-])/N=C1\NCCN1CCCCl
Activity (Aulacophora [2]): 100% | Activity (Myzus persicae [6]): 0% | Activity (Spodoptera litura [3]): 0% | Activity (Aulacophora [7]): 100% | Activity (Aulacophora [9]): 50% | Activity (Myzus persicae [4]): 97%

O=[N+]([O-])/N=c1\sccn1Cc1ccc(Cl)nc1
log(1/BC) (Periplaneta americana [5]): 5.68

O=[N+]([O-])/N=c1\sccn1Cc1cnc(Cl)s1
log(1/BC) (Periplaneta americana [5]): 5.79

O=[N+]([O-])/N=C1\NCCN1Cc1cnc(Cl)s1 [IMIDACLOTHIZ]
log(1/BC) (Periplaneta americana [5]): 5.97

O=[N+]([O-])/N=C1/N(CCCCCCCCCCN2CCN(Cc3ccc(Cl)nc3)/C2=N/[N+](=O)[O-])CCN1Cc1ccc(Cl)nc1
Activity (Periplaneta americana [1]): 3.7 nmol

O=[N+]([O-])/C=C1\NCCN1Cc1ccc(Cl)nc1
log(1/BC) (Periplaneta americana [5]): 5.02

O=[N+]([O-])/C=C1\NCCN1Cc1cnc(Cl)s1
log(1/BC) (Periplaneta americana [5]): 5.73

O=[N+]([O-])/C=C1\CCCN1Cc1cnc(Cl)s1
logP [11]: 0.64 | log(1/BC) (Periplaneta americana [5]): 6

O=[N+]([O-])/N=C1\NCCN1Cc1ccc(Cl)nc1 [IMIDACLOPRID]
Activity (Aulacophora [2]): 100% | Activity (Periplaneta americana [1]): 2.5 nmol | Activity (Myzus persicae [6]): 100% | Activity (Spodoptera litura [3]): 100% | Activity (Aulacophora [7]): 100% | Activity (Spodoptera litura [8]): 80% | Activity (Aulacophora [9]): 100% | log(1/BC) (Periplaneta americana [5]): 5.64 | Activity (Myzus persicae [4]): 100% | Activity (Spodoptera litura [12]): 40% | Activity (Myzus persicae [10]): 100%
